Measured values as given in ChEMBL document CHEMBL4414677, “Albanitriles A-G: Antiprotozoal Polyacetylene Nitriles from a Mycale Marine Sponge” (J Nat Prod, 2019).
Values after ≈ are worked out from the molar mass of the structure shown.

Legend:
[1] = Cytotoxicity against human NFF cells assessed as cell growth inhibition measured after 96 hrs by resazurin assay; assay type: cell-based; details: read-out: MIC
[2] = Cytotoxicity against mouse NS1 cells assessed as cell growth inhibition measured after 96 hrs by resazurin assay; assay type: cell-based; details: read-out: MIC
Bacillus spizizenii = test: Antibacterial activity against Bacillus subtilis ATCC 6633 assessed as bacterial growth inhibition measured after 48 hrs by resazurin assay; assay type: functional; details: ATCC 6633, 48 h
Escherichia coli = test: Antibacterial activity against Escherichia coli ATCC 25922 assessed as bacterial growth inhibition measured after 48 hrs by resazurin assay; assay type: functional; details: ATCC 25922, 48 h
Candida albicans = test: Antifungal activity against Candida albicans ATCC 10231 assessed as fungal growth inhibition measured after 48 hrs by bromocresol green dye based assay; assay type: functional
Giardia intestinalis = test: Antiprotozoal activity against Giardia duodenalis 713 assessed as protozoal growth inhibition measured after 96 hrs under anaerobic conditions; assay type: functional; details: Giardia duodenalis, 713, 96 h
Tritrichomonas foetus = test: Antiprotozoal activity against Tritrichomonas foetus KV1 assessed as protozoal growth inhibition measured after 72 hrs under anaerobic conditions; assay type: functional; details: KV1, 72 h

Compound | MCC at 96 h [1] | MCC at 96 h [2] | MIC (Bacillus spizizenii) | MIC (Escherichia coli) | MIC (Candida albicans; ATCC 10231, 48 h) | MIC (Giardia intestinalis) | MIC (Tritrichomonas foetus) | MIC (Candida albicans)
CSC[S@+]([O-])C[C@H](CO)NC(=O)/C=C/c1c(C)[nH]c(=O)[nH]c1=O | 1.7 µM | 0.55 µM |  |  |  |  |  | 
CN(C)[C@@H]1C(O)=C(C(N)=O)C(=O)[C@@]2(O)C(O)=C3C(=O)c4c(O)cccc4[C@@](C)(O)[C@H]3C[C@@H]12 [TETRACYCLINE] |  |  | 0.9 µM (≈ 0.4 µg/mL) | 14 µM (≈ 6.22 µg/mL) |  |  |  | 
N#CCCCCC#CC#CC#CCCCCCC=O | 50 µM | 100 µM | 400 µM (≈ 101 µg/mL) | > 400 µM | > 400 µM | 400 µM (≈ 101 µg/mL) | 200 µM (≈ 50.7 µg/mL) | 
N#CCCCCC#CC#CC#CCCCCCC#N | 100 µM | 50 µM | > 400 µM | > 400 µM | > 400 µM | 25 µM (≈ 6.26 µg/mL) | 200 µM (≈ 50.1 µg/mL) | 
Cc1ncc([N+](=O)[O-])n1CCO [METRONIDAZOLE] |  |  |  |  |  | 2.9 µM (≈ 0.496 µg/mL) | 1.2 µM (≈ 0.205 µg/mL) | 
N#CCCCCC#CC#CC#CCCCCCCC#N | 100 µM | 50 µM | 400 µM (≈ 106 µg/mL) | > 400 µM | > 400 µM | 12 µM (≈ 3.17 µg/mL) | 190 µM (≈ 50.2 µg/mL) | 
N#CCCCCC#CC#CC#CCCCCCC(O)C#N (stereo not given) | 90 µM | 180 µM | 90 µM (≈ 25.2 µg/mL) | > 360 µM | > 360 µM | 90 µM (≈ 25.2 µg/mL) | > 360 µM | 
NYSTATIN |  |  |  |  |  |  |  | 1.7 µM
